Here are results for 33 molecules from patent US20250171437A1 (Agios Pharmaceuticals,Inc., priority 2022, published 2025).

A value given as a limit tells only on which side of the number the result lay.

The target of the first experiment is T1, human PAH with the R408W mutation (A375 R408W cells) (Homo sapiens, UniProt P00439, R408W).
T1 construct: expressed in transfected cells
T1 sequence (P00439 1-452 R408W): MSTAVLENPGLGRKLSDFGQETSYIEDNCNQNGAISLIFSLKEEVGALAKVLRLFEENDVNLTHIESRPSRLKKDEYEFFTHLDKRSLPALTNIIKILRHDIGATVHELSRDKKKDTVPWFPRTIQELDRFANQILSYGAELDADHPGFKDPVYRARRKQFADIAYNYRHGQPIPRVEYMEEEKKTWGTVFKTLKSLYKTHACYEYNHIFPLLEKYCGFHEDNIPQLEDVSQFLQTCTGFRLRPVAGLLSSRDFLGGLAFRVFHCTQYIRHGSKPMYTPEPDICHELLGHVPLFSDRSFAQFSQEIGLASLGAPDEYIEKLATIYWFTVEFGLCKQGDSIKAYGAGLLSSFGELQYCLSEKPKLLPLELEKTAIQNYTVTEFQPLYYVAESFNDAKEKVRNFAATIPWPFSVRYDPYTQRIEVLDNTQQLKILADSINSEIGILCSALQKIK
Kind of experiment: Cell Based Phenylalanine Flux Assay. Particulars: A375 R408W cells; 24 hrs with compound, then 20 μM sepiapterin and 800 μM 13C9,15N-Phenylalanine for 4 hours; 13C-Tyrosine by LC-MS; average where tested multiple times. Put shortly: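 Stable R408W PAH A375 cells: 24 h compound pretreatment in duplicate, then 4 h with 800 μM isotope-labelled Phe and 20 μM sepiapterin. Labelled Tyr output by LC-MS; AC50 averaged where repeated.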
As usually defined, the AC50 is the midpoint of the concentration-response curve, whichever way the signal moves. Regarding `O=C(c1cnco1)N1Cc2[nH]cnc2[C@H]1c1nc2ccccc2o1` (single isomer, unassigned) [Example 925], the half-maximal activity concentration (AC50) was at least 5000 nM.

As to `O=C(c1oc(-c2cnccn2)nc1C(F)F)N1CCc2[nH]cnc2[C@H]1c1nc2cccc(F)c2o1` [Example 693, (S)-(4-(difluoromethyl)-2-(pyrazin-2-yl)oxazol-5-yl)(4-(7-fluorobenzo[d]oxazol-2-yl)-6,7-dihydro-1H-imidazo[4,5-c]pyridin-5(4H)-yl)methanone], the AC50 is at most 500 nM. Same read-out and setting: for `O=C(c1cnn2cc(-c3ccccn3)ccc12)N1CCc2[nH]cnc2[C@@H]1c1nc2cccc(F)c2o1` [Example 452, (R)-(4-(7-fluorobenzo[d]oxazol-2-yl)-6,7-dihydro-1H-imidazo[4,5-c]pyridin-5(4H)-yl)(6-(pyridin-2-yl)pyrazolo[1,5-a]pyridin-3-yl)methanone] the value was 1000 to 5000 nM. The same measure, in the same setting: for `O=C(c1nnc(-c2ccc(OC(F)(F)F)cn2)o1)N1CCc2[nH]cnc2[C@@H]1c1nc2cc(F)ccc2o1` [Example 672, (R)-(4-(5-fluorobenzo[d]oxazol-2-yl)-6,7-dihydro-1H-imidazo[4,5-c]pyridin-5(4H)-yl)(5-(5-(trifluoromethoxy)pyridin-2-yl)-1,3,4-oxadiazol-2-yl)methanone] the value was 1000 to 5000 nM. Consider `COc1cccc2oc([C@@H]3c4nc[nH]c4CCN3C(=O)c3ocnc3C(F)F)nc12` [Example 429, (S)-(4-(difluoromethyl)oxazol-5-yl)(4-(4-methoxybenzo[d]oxazol-2-yl)-6,7-dihydro-1H-imidazo[4,5-c]pyridin-5(4H)-yl)methanone], for which the AC50 is at most 500 nM. Still for that read-out and setting: for `Cn1ccc(-c2nc(C(F)F)c(C(=O)N3CCc4[nH]cnc4[C@@H]3c3nc4cc(F)ccc4o3)o2)n1` [Example 412, (R)-(4-(difluoromethyl)-2-(1-methyl-1H-pyrazol-3-yl)oxazol-5-yl)(4-(5-fluorobenzo[d]oxazol-2-yl)-6,7-dihydro-1H-imidazo[4,5-c]pyridin-5(4H)-yl)methanone] the value was 500 to 1000 nM; for `CN(C)c1ccc2c(C(=O)N3CCc4[nH]cnc4[C@H]3c3nc4cc(F)ccc4o3)cnn2c1` [Example 91, (S)-(6-(dimethylamino)pyrazolo[1,5-a]pyridin-3-yl)(4-(5-fluorobenzo[d]oxazol-2-yl)-6,7-dihydro-1H-imidazo[4,5-c]pyridin-5(4H)-yl)methanone], 500 to 1000 nM. Still for that read-out and setting: for `Cn1ccc(-c2nc(C(F)(F)F)c(C(=O)N3CCc4[nH]cnc4[C@@H]3c3nc4cc(F)ccc4o3)o2)n1` [Example 788, (R)-(4-(5-fluorobenzo[d]oxazol-2-yl)-6,7-dihydro-1H-imidazo[4,5-c]pyridin-5(4H)-yl)(2-(1-methyl-1H-pyrazol-3-yl)-4-(trifluoromethyl)oxazol-5-yl)methanone] the value was 1000 to 5000 nM; for `Cn1nc(C(F)F)nc1C(=O)N1CCc2[nH]cnc2[C@H]1c1nc2cccc(F)c2o1` [Example 285, (S)-(3-(difluoromethyl)-1-methyl-1H-1,2,4-triazol-5-yl)(4-(7-fluorobenzo[d]oxazol-2-yl)-6,7-dihydro-1H-imidazo[4,5-c]pyridin-5(4H)-yl)methanone], 500 to 1000 nM; for `CC(C)(O)c1nc(Cl)c(C(=O)N2CCc3[nH]cnc3[C@H]2c2nc3c(F)cccc3o2)o1` [Example 274, (S)-(4-chloro-2-(2-hydroxypropan-2-yl)oxazol-5-yl)(4-(4-fluorobenzo[d]oxazol-2-yl)-6,7-dihydro-1H-imidazo[4,5-c]pyridin-5(4H)-yl)methanone], 500 to 1000 nM. The same measure, in the same setting: for `COc1cc(F)cc2nc([C@H]3c4nc[nH]c4CCN3C(=O)c3oc(C(C)(C)O)nc3C(F)F)oc12` [Example 716, (R)-(4-(difluoromethyl)-2-(2-hydroxypropan-2-yl)oxazol-5-yl)(4-(5-fluoro-7-methoxybenzo[d]oxazol-2-yl)-6,7-dihydro-1H-imidazo[4,5-c]pyridin-5(4H)-yl)methanone] the value was 1000 to 5000 nM.

Consider `Cc1ccc(F)c2nc([C@H]3c4nc[nH]c4CCN3C(=O)c3oc(C(C)(C)O)nc3C(F)F)oc12` [Example 724, (R)-(4-(difluoromethyl)-2-(2-hydroxypropan-2-yl)oxazol-5-yl)(4-(4-fluoro-7-methylbenzo[d]oxazol-2-yl)-6,7-dihydro-1H-imidazo[4,5-c]pyridin-5(4H)-yl)methanone], for which the AC50 fell in the range of 1000 to 5000 nM. The same measure, in the same setting: for `Cc1ncoc1C(=O)N1CCc2[nH]cnc2[C@H]1c1nc2c(F)ccc(F)c2o1` [Example 807, (S)-(4-(4,7-difluorobenzo[d]oxazol-2-yl)-6,7-dihydro-1H-imidazo[4,5-c]pyridin-5(4H)-yl)(4-methyloxazol-5-yl)methanone] the value was at most 500 nM; for `CC(C)(O)c1nc(C(F)F)c(C(=O)N2Cc3[nH]cnc3[C@H]2c2nc3ccccc3o2)o1` [Example 947, (S)-(4-(benzo[d]oxazol-2-yl)-4,6-dihydropyrrolo[3,4-d]imidazol-5(1H)-yl)(4-(difluoromethyl)-2-(2-hydroxypropan-2-yl)oxazol-5-yl)methanone], at least 5000 nM. Regarding `O=C(c1nnc(-c2cccnc2)o1)N1CCc2[nH]cnc2[C@H]1c1nc2cc(F)ccc2o1` [Example 399, (S)-(4-(5-fluorobenzo[d]oxazol-2-yl)-6,7-dihydro-1H-imidazo[4,5-c]pyridin-5(4H)-yl)(5-(pyridin-3-yl)-1,3,4-oxadiazol-2-yl)methanone], the AC50 lay in the range of 500 to 1000 nM. With `O=C(c1oc(C2(O)CC2)nc1C(F)F)N1CCc2[nH]cnc2[C@H]1c1nc2cc(F)ccc2o1` [Example 141, (S)-(4-(difluoromethyl)-2-(1-hydroxycyclopropyl)oxazol-5-yl)(4-(5-fluorobenzo[d]oxazol-2-yl)-6,7-dihydro-1H-imidazo[4,5-c]pyridin-5(4H)-yl)methanone], the concentration at half-maximal activity (AC50) lay within 500 to 1000 nM. The same measure, in the same setting: for `Cc1ccc2nc([C@@H]3c4nc[nH]c4CCN3C(=O)c3ocnc3C(F)(F)F)oc2c1` [Example 57, (S)-(4-(6-methylbenzo[d]oxazol-2-yl)-6,7-dihydro-1H-imidazo[4,5-c]pyridin-5(4H)-yl)(4-(trifluoromethyl)oxazol-5-yl)methanone] the value was at most 500 nM; for `CC(O)c1nc(Cl)c(C(=O)N2CCc3[nH]cnc3[C@@H]2c2nc3cc(F)ccc3o2)o1` (single isomer, unassigned) [Example 233], 1000 to 5000 nM. Same read-out and setting: for `O=C(c1nnc(-c2cnn(C(F)F)c2)o1)N1CCc2[nH]cnc2[C@@H]1c1nc2c(F)ccc(F)c2o1` [Example 802, (R)-(4-(4,7-difluorobenzo[d]oxazol-2-yl)-6,7-dihydro-1H-imidazo[4,5-c]pyridin-5(4H)-yl)(5-(1-(difluoromethyl)-1H-pyrazol-4-yl)-1,3,4-oxadiazol-2-yl)methanone] the value was 500 to 1000 nM. `O=C(c1ccnn1-c1ccccn1)N1CCc2[nH]cnc2[C@H]1c1nc2cccc(F)c2o1` [Example 729, (S)-(4-(7-fluorobenzo[d]oxazol-2-yl)-6,7-dihydro-1H-imidazo[4,5-c]pyridin-5(4H)-yl)(1-(pyridin-2-yl)-1H-pyrazol-5-yl)methanone]: the AC50 was 500 to 1000 nM. Take `Cn1nc(Cl)nc1C(=O)N1CCc2[nH]cnc2[C@@H]1c1nc2cccc(F)c2o1` [Example 284, (R)-(3-chloro-1-methyl-1H-1,2,4-triazol-5-yl)(4-(7-fluorobenzo[d]oxazol-2-yl)-6,7-dihydro-1H-imidazo[4,5-c]pyridin-5(4H)-yl)methanone]: the concentration at half-maximal activity (AC50) was in the range of 1000 to 5000 nM.

The experiment is the same for the next values; noted with them: A375 cells expressing R408W PAH; 24 hrs with compound, then 20 μM sepiapterin and 800 μM 13C9,15N-Phenylalanine for 4 hours; 13C-Tyrosine by LC-MS; average where tested multiple times.
For `O=C(c1nnc(CCN2CC(F)C2)o1)N1CCc2[nH]cnc2C1c1nc2cc(F)ccc2o1` (stereo not drawn), the AC50 was at least 5000 nM. Same read-out and setting: for `O=C(c1nnc(-c2ncccn2)o1)N1CCc2[nH]cnc2C1c1nc2cc(F)ccc2o1` (stereo not drawn) the value was 1000 to 5000 nM. On the same count and under the same terms, for `COc1ccc2oc(C3c4nc[nH]c4CCN3C(=O)c3cnc(C(C)(C)O)o3)nc2c1` (stereo not drawn) the value was 1000 to 5000 nM; for `Cc1nc(-c2cnn(C)c2)sc1C(=O)N1CCc2[nH]cnc2C1c1nc2cc(F)ccc2o1` (stereo not drawn), 1000 to 5000 nM; for `O=C(c1nnc(-c2cn[nH]c2)o1)N1CCc2[nH]cnc2C1c1nc2cc(F)ccc2o1` (stereo not drawn), 1000 to 5000 nM.

For the molecule `N#Cc1ncoc1C(=O)N1CCc2[nH]cnc2C1c1nc2cc(F)ccc2o1` (stereo not drawn), the AC50 is at least 5000 nM. Turning to `CC(C)(O)c1ncc(C(=O)N2CCc3[nH]cnc3C2c2nc3cc(F)ccc3o2)o1` (stereo not drawn), the half-maximal activity concentration (AC50) is 1000 to 5000 nM.

For `O=C(c1nnc(-c2ccccn2)o1)N1CCc2[nH]cnc2C1c1nc2cc(C(F)(F)F)ccc2o1` (stereo not drawn), the AC50 is 1000 to 5000 nM. Same read-out and setting: for `O=C(c1cnn2cc(CN3CCC(F)(F)C3)ccc12)N1CCc2[nH]cnc2C1c1nc2cc(F)ccc2o1` (stereo not drawn) the value was at least 5000 nM; for `Cn1nc(C(F)F)nc1C(=O)N1CCc2[nH]cnc2C1c1nc2c(F)cccc2o1` (stereo not drawn), 1000 to 5000 nM; for `Cn1nc(C(C)(C)C)cc1C(=O)N1CCc2[nH]cnc2C1c1nc2ccccc2o1` (stereo not drawn), 1000 to 5000 nM. As for `O=C(c1nnc(-c2cnn(S(=O)(=O)C3CC3)c2)o1)N1CCc2[nH]cnc2C1c1nc2cc(F)ccc2o1` (stereo not drawn), the concentration at half-maximal activity (AC50) was at least 5000 nM.
